{"source": "patent US8557864B2", "about": "“Agent having neurotrophic factor-like activity” (Nagoya Industrial Science Research Institute, priority 2007, dated 2013)", "key": {"MAP kinases": {"test_system": "MAP kinases", "assay": "Measurement of activation of MAP kinases in cultured nerve cells (western immunoblotting)", "type": "cell-based", "conditions": "fetal rat cerebral cortex nerve cells, compound 500 μg/ml, 30 minutes, relative to control", "method": "Activation of MAP kinases was measured on respective compounds in Table 1 including the compound obtained in Production Example with western immunoblotting as follows. Nerve cells were dispersed from a cerebral cortex of a 17-day-old fetal rat and the nerve cells were cultured in a Dulbecco's modified eagle medium (DMEM) containing 5%; fetal bovine serum for 1 day. A culture solution was exchanged to a serum-free medium (B27 supplement added Neurobasal, Invitrogen Corporation), and the nerve cells were cultured in a culture petri dish coated with polyornithine at a density of 20,000 to 40,000 cells/cm^2. Three days later, each of the compounds in Table 1 was added thereto, and culture for 30 minutes was continued. Then, cells were recovered on ice with a solution of a Tris-HCL buffer as a base containing a phosphatase inhibitor. The protein concentration of the obtained cell extraction was determined using a BCA Protein Assay Kit (TAKARABIO INC.), a constant amount (3 μg for MAP kinase measurement, 5 μg for phosphorylated MAP kinase measurement) of the protein was electrophoresed with a polyacrylic amide gel. The protein was transcribed to a PVDF membrane from the gel after electrophoresis, and western immunoblotting was carried out using the primary antibodies: an anti-MAP kinase antibody (Cell Signaling Technology, Inc.) and an antiphosphorylated MAP kinase antibody (Cell Signaling Technology, Inc.), respectively. Subsequently, an enzyme activity was subjected to color development by being reacted with the secondary antibody: an alkaline phosphatase labeled anti-rabbit IgG antibody (Promega KK) to measure MAP kinases and phosphorylated MAP kinases. In addition, each compound was dissolved in 0.7% DMSO and adjusted to have a concentration of 500 μg/ml. A control was added with a phosphoric acid buffer containing 0.1% DMSO in the same amount as the compound.\nThe above obtained concentration measurement of the electrophoresis gel band was digitalized by calculating an intensity with Image J (BioArts International, Inc.). The numerical value of MAP kinases of each compound was divided by the numerical value of the control's MAP kinases, and the numerical value of phosphorylated MAP kinases of each compound was divided by the numerical value of the control's phosphorylated MAP kinases to find a ratio of the MAP kinases of each compound to the control and a ratio of the phosphorylated MAP kinases of the each compound to the control. Then, the obtained ratio of the phosphorylated MAP kinases to the control was divided by the obtained ratio of the MAP kinases to the control to find a ratio of the phosphorylated MAP kinases to the MAP kinases and graphs were formed and shown in FIGS. 1 to 3. Compound 1, compound 6, compound 11, compound 16, compound 21 and compound 36 in Table 1 were used from products made by Wako Pure Chemical Industries, Ltd."}, "[1]": {"test_system": "mice under chronic mild stress", "assay": "Burying the glass-marbles test, compound given at the same time as stress", "type": "in vivo", "conditions": "20, 100 and 500 μg/kg intraperitoneally once per day with stress; stressed 3 week- and 1 week-administration groups", "method": "Mice under established chronic mild stress (hereinafter referred to as “stress”) were used for a depression and anxiety disorder-like model animal. Stress was applied as follows. 7-week-old male ddY strain mice fed in one cage for 4 mice were used and first subjected to forced swimming for 15 minutes. Then, the mice were fed in a sloped cage for 2 days, and then rested in a normal cage for 1 day. Then, the mice were fed in a dirt cage moisturized with 200 mL of water for 1 day and then rested in a normal cage for 1 day. Then, the mice were fed in a rotational cage that rotated at 180 rpm for 1 day, and then rested in a normal cage for 1 day. […] For 0 μg/kg administration examples of controls, a phosphoric acid buffer containing 0.1% DMSO (controls were expressed as “PBS” or “0 μg/kg” in the figure shown below) was administered in an amount of 0.25 mL to each of a stressed example and a non-stressed example. […]\nTips were bedded so as to have a height of 5 cm in a box with […] and 25 glass marbles (1.6 cm in diameter) were placed thereon at 5 cm-interval and behaviors of mice were observed. […] Since a mouse under stress having an anxiety symptom (condition) takes such a behavior as burying glass marbles, a level of the anxiety symptom can be evaluated from the number of buried glass marbles."}}, "data": [{"smiles": "CCCCCCC/C=C/C(=O)OCC", "note": "[Compound 8, trans-2-decenoic acid ethyl ester]", "values": [{"measurement": "ratio of phosphorylated MAP kinases to MAP kinases", "setting": "MAP kinases", "result": "twice or more"}, {"measurement": "ratio of phosphorylated MAP kinases to MAP kinases", "setting": "MAP kinases; listed as trans-2-decenic acid ethyl ester", "result": 11, "unit": "times"}, {"measurement": "number of buried glass marbles, stressed vs non-stressed example", "setting": "[1]", "result": "no significant difference"}]}]}
